Here are results for 57 compounds from EP0136745A2, “Benzoyl urea derivatives having anti-tumor activity” (DUPHAR INTERNATIONAL RESEARCH B.V, priority 1983, dated 1985).

The subject of this assay is B16 melanoma cells. Put plainly: Sensitivity of B16 melanoma cells, in vitro cell growth inhibition (Coulter Counter cell count). The conditions noted are these: Mus musculus, dosage of 500 /ug/ml, aqueous suspension, incubation 20 hours at 37°C, cells counted 48 hours after beginning of incubation, inhibition of cell growth with respect to control. Format: cell-based. Here is the method:
The anti-tumor activity was tested in an in vitro test. In this test the sensitivity of B16 melanoma cells to the new compounds according to the invention was determined.
B16 melanoma cells grow as a "monolayer". The doubling time of said cells in a cell culture is 12-16 hours.
On day O a quantity of 5 x 10^4 B 16 melanoma cells is provided in each cell culture dish.
On day 1 the compounds to be tested are vortexed in the presence of glass-beads. The compound to be tested is then addei to the dishes comprising melanoma cells in the desired quantity. Incubation takes place in a CO2--incubator at 37°C for 20 hours. The incubation is terminated by removing the culture medium with therein the compound to be tested, after which the cells are washed twice and fresh medium is added.
Forty-eight hours after the beginninq of the incubation the quantity of cells in each dish is measured by means of a microcell Coulter Counter. The results thus obtained are expressed by indicating the activity cf the compounds as 1+, 2+, 3+, 4+ or 5+, which has the following meaning: • 1+ : cel growth is inhibited 1- 20% with respect to control. • 2+ : cel growth is inhibited 20- 40% with respect to control. • 3+ : cel growth is inhibited 40- 60% with respect to control. • 4+ : cel growth is inhibited 60- 80% with respect to control. • 5+ : cel growth is inhibited 80-100% with respect to control.
Various compounds according to the invention were tested in the above-described manner in a dosage of 500 /ug/ml in the form of an aqueous suspension.
`CCCCOC(=O)c1ccc(NC(=O)NC(=O)c2c(Cl)cccc2OC(C)=O)cc1O` [Compound 44]: the inhibition at 500 µg/mL was 60 to 80%.

`CC(=O)Oc1cccc(Cl)c1C(=O)NC(=O)Nc1cc(C)ccc1O` [Compound 41] came in with an inhibition at 500 µg/mL of 80 to 100%. As for `O=C(NC(=O)c1ccccc1OC(=O)c1ccccc1)Nc1ccc(Cl)cc1` [Compound 17], the inhibition at 500 µg/mL is 60 to 80%. In turn, `O=C(NC(=O)c1c(F)cccc1F)Nc1ccc(O)c(C(F)(F)F)c1` [Compound 26] had an inhibition at 500 µg/mL of 80 to 100%. On to `O=C(NC(=O)c1ccccc1Cl)Nc1ccc(O)c(C(F)(F)F)c1` [Compound 27], for which the inhibition at 500 µg/mL was in the range of 40 to 60%. `CC(=O)Oc1cc(Cl)ccc1NC(=O)NC(=O)c1c(F)cccc1F` [Compound 24]: the inhibition at 500 µg/mL fell in the range of 80 to 100%. As for `CC(=O)Oc1cccc(Cl)c1C(=O)NC(=O)Nc1ccc(OC2CC(C)CCC2C(C)C)cc1` (stereo not drawn) [Compound 15], the figure is 60 to 80%; as for `CC(=O)Oc1cccc(Cl)c1C(=O)NC(=O)Nc1ccc(OC(F)(F)C(F)F)cc1` [Compound 14], 80 to 100%; as for `CC(=O)Oc1cccc(Cl)c1C(=O)NC(=O)Nc1ccc(O)c(C(C)=O)c1` [Compound 46], 80 to 100%. The value for `CC(=O)Oc1ccc(C(=O)NC(=O)Nc2ccc(O)c(C(F)(F)F)c2)cc1Cl` [Compound 56] was 40 to 60%; that for `CC(=O)Oc1ccccc1C(=O)NC(=O)Nc1cc(Cl)c(O)c(Cl)c1` [Compound 49] was 80 to 100%.

For the compound `O=C(NC(=O)c1c(O)cccc1Cl)Nc1ccc(Cl)cc1` [Compound 6], the inhibition at 500 µg/mL fell in the range of 60 to 80%. As for `Cc1ccccc1C(=O)NC(=O)Nc1ccc(O)cc1` [Compound 36], the figure is 60 to 80%; as for `CCC(=O)Oc1cccc(Cl)c1C(=O)NC(=O)Nc1ccc(Cl)cc1` [Compound 8], 60 to 80%; as for `CC(=O)Oc1ccccc1NC(=S)NC(=O)c1ccccc1` [Compound 51], 60 to 80%.

`CSc1cccc(Cl)c1C(=S)NC(=S)Nc1ccc(Cl)cc1` [Compound 52] registered an inhibition at 500 µg/mL of 80 to 100%. In turn, `CC(=O)Oc1cccc(Cl)c1C(=O)NC(=O)Nc1ccc(C(=O)c2ccccc2)cc1` [Compound 23] gave an inhibition at 500 µg/mL of 80 to 100%. For the compound `CC(=O)Oc1ccc(C(=O)NC(=O)Nc2ccc(O)cc2)cc1Cl` [Compound 48], the inhibition at 500 µg/mL fell in the range of 60 to 80%.

Consider `O=C(NC(=O)c1c(Cl)ccc(O)c1Cl)Nc1ccc(Cl)cc1` [Compound 1], for which the inhibition at 500 µg/mL lay within 80 to 100%. As for `CC(=O)Oc1cc(NC(=O)NC(=O)c2c(Cl)cccc2OC(C)=O)ccc1Cl` [Compound 39], the figure is 80 to 100%. In turn, `O=C(NC(=O)c1c(F)cccc1F)Nc1ccccc1S` [Compound 50] had an inhibition at 500 µg/mL of 80 to 100%. `O=C(NC(=O)c1cc(Cl)ccc1O)Nc1ccc([N+](=O)[O-])cc1Cl` [Compound 20] registered an inhibition at 500 µg/mL of 40 to 60%. Compound `O=C(NC(=O)c1c(Cl)ccc(OCc2ccccc2)c1Cl)Nc1ccc(Cl)cc1` [Compound 3] gave an inhibition at 500 µg/mL of 40 to 60%. As for `CC(=O)Oc1cc(C(F)(F)F)ccc1NC(=O)NC(=O)c1c(F)cccc1F` [Compound 25], the figure is 80 to 100%. As for `CNC(=O)Oc1ccccc1NC(=O)NC(=O)c1c(Cl)cccc1Cl` [Compound 32], the inhibition at 500 µg/mL was in the range of 60 to 80%. The value for `O=C(NC(=O)c1c(O)cccc1Cl)Nc1ccc(Cl)c(O)c1` [Compound 38] was 60 to 80%; that for `O=C(NC(=O)c1c(F)cccc1F)Nc1ccc(Oc2ccc(Cl)cc2)c(Cl)c1` [Compound 31] was 40 to 60%. As for `CC(=O)Oc1cc(OC(F)(F)F)ccc1NC(=O)NC(=O)c1ccccc1Cl` [Compound 30], the figure is 40 to 60%. The value for `CC(=O)Oc1ccc(Cl)c(C(=O)NC(=O)Nc2ccc(C(F)(F)F)cc2)c1Cl` [Compound 5] was 80 to 100%; that for `CC(=O)Oc1ccc(C)cc1NC(=O)NC(=O)c1c(Cl)cccc1OC(C)=O` [Compound 43] was 80 to 100%. With `O=C(NC(=O)c1c(F)cccc1F)Nc1cc(Cl)c(C(=O)c2ccc(Cl)cc2)c(Cl)c1` [Compound 55], the inhibition at 500 µg/mL was 40 to 60%. `O=C(NC(=O)c1cc(I)cc(I)c1O)Nc1ccc(Cl)cc1` [Compound 12]: the inhibition at 500 µg/mL was in the range of 80 to 100%. The value for `CC(=O)Oc1cccc(Cl)c1C(=O)NC(=O)Nc1ccc(O)cc1` [Compound 40] was 60 to 80%; that for `Cc1cc(Cl)ccc1NC(=O)NC(=O)c1c(O)cccc1O` [Compound 13] was 60 to 80%. The compound `CC(C)(C)c1cc(NC(=O)NC(=O)c2ccccc2Cl)cc(C(C)(C)C)c1O` [Compound 37] showed an inhibition at 500 µg/mL of 80 to 100%.

Take `O=C(NC(=O)c1ccccc1O)Nc1ccc([N+](=O)[O-])cc1Cl` [Compound 10]: the inhibition at 500 µg/mL fell in the range of 60 to 80%.

In the case of `CC(=O)Oc1ccc(NC(=O)NC(=O)c2cc(C(C)(C)C)c(O)c(C(C)(C)C)c2)cc1` [Compound 47], the inhibition at 500 µg/mL lay within 60 to 80%. For `O=C(NC(=O)c1c(Cl)cc(O)cc1Cl)Nc1ccc(Cl)c(Cl)c1` [Compound 21], the inhibition at 500 µg/mL lay within 60 to 80%. Compound `CC(=O)Oc1ccc(Cl)c(C(=O)NC(=O)Nc2ccc(Cl)cc2)c1Cl` [Compound 2] gave an inhibition at 500 µg/mL of 60 to 80%. As for `O=C(NC(=O)c1c(Cl)cccc1Cl)Nc1cccc(OC(=O)Nc2ccccc2)c1` [Compound 33], the figure is 80 to 100%; as for `O=C(NC(=O)c1cc([N+](=O)[O-])ccc1O)Nc1ccc(Cl)cc1` [Compound 9], 60 to 80%; as for `CC(=O)Oc1cccc(Cl)c1C(=O)NC(=O)Nc1ccc(C(=O)N2CCCCC2)cc1` [Compound 16], 80 to 100%.

In turn, `O=C(NC(=O)c1c(Cl)ccc(O)c1Cl)Nc1ccc(C(F)(F)F)cc1` [Compound 4] had an inhibition at 500 µg/mL of 80 to 100%. Regarding `CC(=O)Oc1cccc(Cl)c1C(=O)NC(=O)Nc1cc(Br)cc(Br)c1O` [Compound 45, 1-(2-acetoxy-6-chlorobenzoyl)-3-(2-hydroxy-3,5-dibromophenyl)urea], the inhibition at 500 µg/mL lay in the range of 80 to 100%. The value for `CC(=O)Oc1cccc(Cl)c1C(=O)NC(=O)Nc1ccc([N+](=O)[O-])cc1O` [Compound 42] was 80 to 100%; that for `O=C(NC(=O)c1ccccc1Cl)Nc1ccc(O)cc1OC(F)(F)F` [Compound 28] was 80 to 100%; that for `CC(=O)Oc1cc(C(F)(F)F)ccc1NC(=O)NC(=O)c1ccccc1Cl` [Compound 29] was 40 to 60%. As for `CC(=O)Oc1cccc(Cl)c1C(=O)NC(=O)Nc1ccc(Cl)cc1` [Compound 7], the figure is 80 to 100%. In turn, `CC(=O)Oc1c(Cl)cc(C(=O)NC(=O)Nc2ccc(Cl)cc2)cc1Cl` [Compound 19] returned an inhibition at 500 µg/mL of 60 to 80%. The value for `Cc1cc(Cl)ccc1NC(=O)NC(=O)c1c(OCc2ccccc2)cccc1OCc1ccccc1` [Compound 22] was 40 to 60%; that for `O=C(NC(=O)c1c(O)cccc1O)Nc1ccc(Cl)cc1` [Compound 11] was 80 to 100%. As to `CCOC(=O)COc1ccc(NC(=O)NC(=O)c2c(F)cccc2F)cc1C(F)(F)F` [Compound 35], the inhibition at 500 µg/mL lay within 60 to 80%. With `O=C(NC(=O)c1cc(Cl)c(O)c(Cl)c1)Nc1ccc(Cl)cc1` [Compound 18], the inhibition at 500 µg/mL is 60 to 80%.

Compound `O=C(NC(=O)c1ccccc1OCc1ccccc1)Nc1ccc(Cl)cc1` [Compound 54, 1-(2-benzyloxybenzoyl)-3-(4-chlorophenyl)urea] yielded an inhibition at 500 µg/mL of 20 to 40%. For the compound `O=C(NC(=O)c1c(F)cccc1F)Nc1ccc(OC(=O)Oc2ccc(Cl)cc2)cc1` [Compound 57], the inhibition at 500 µg/mL fell in the range of 20 to 40%. As for `O=C(NC(=S)Nc1cccc(O)c1)c1ccc(Cl)cc1Cl` [Compound 53], the figure is 80 to 100%; as for `O=C(NC(=O)c1ccccc1Cl)Nc1ccc(OC(=O)Cc2ccc(Cl)cc2)c(Cl)c1` [Compound 34], 40 to 60%.

One may read the inhibition as how much of the control response was suppressed. A higher inhibition goes with a strong effect.
